According to ChEMBL document CHEMBL1201862, “PubChem BioAssay data set” (2004):
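Protocol summary: plate cells (96-well), add compound at 5 concentrations, incubate 48 h, interpolate endpoints linearly. Here, GI50 denotes the concentration required for 50% inhibition of growth.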 Active and inactive are the calls of the source. Rule as the data show it: active = GI50 up to about 1.1 µM and inactive = higher.

How the values were obtained:
Assay in all cases: NCI anticancer screen, dose series, 48 h
[1] = tested on: A498
[2] = tested on: A549
[3] = tested on: ACHN
[4] = tested on: COLO 205
[5] = tested on: EKVX
[6] = tested on: HCC 2998
[7] = tested on: HL-60
[8] = tested on: HOP-92
[9] = tested on: HT-29
[10] = tested on: Hs-578T
[11] = tested on: KM12
[12] = tested on: MCF7
[13] = tested on: MOLT-4
[14] = tested on: NCI/ADR-RES
[15] = tested on: OVCAR-3
[16] = tested on: OVCAR-4
[17] = tested on: OVCAR-5
[18] = tested on: SK-MEL-28
[19] = tested on: SK-MEL-5
[20] = tested on: SN12C

## CO/N=[N+](\[O-])NC(C)C
[1]
  GI50: > 100 µM (inactive)
[2]
  GI50: > 100 µM (inactive)
[3]
  GI50: > 100 µM (inactive)
[4]
  GI50: > 100 µM (inactive)
[5]
  GI50: > 100 µM (inactive)
[6]
  GI50: > 100 µM (inactive)
[7]
  GI50: > 100 µM (inactive)
[8]
  GI50: > 100 µM (inactive)
[9]
  GI50: > 100 µM (inactive)
[10]
  GI50: > 100 µM (inactive)
[11]
  GI50: > 100 µM (inactive)
[12]
  GI50: > 100 µM (inactive)
[13]
  GI50: > 100 µM (inactive)
[14]
  GI50: > 100 µM (inactive)
[15]
  GI50: > 100 µM (inactive)
[16]
  GI50: > 100 µM (inactive)
[17]
  GI50: > 100 µM (inactive)
[18]
  GI50: > 100 µM (inactive)
[19]
  GI50: > 100 µM (inactive)
[20]
  GI50: > 100 µM (inactive)

## CC(C)/C=C1\CCC(CN(C)C)C1=O (stereo not given)
[1]
  GI50: 6.87 µM (inactive)
[2]
  GI50: 8.57 µM (inactive)
[3]
  GI50: 5.82 µM (inactive)
[4]
  GI50: 0.586 µM (active)
[5]
  GI50: 7.1 µM (inactive)
[6]
  GI50: 7.03 µM (inactive)
[7]
  GI50: 1.09 µM (active)
[8]
  GI50: 1.31 µM (inactive)
[9]
  GI50: 2.12 µM (inactive)
[10]
  GI50: 1.86 µM (inactive)
[11]
  GI50: 1.22 µM (inactive)
[12]
  GI50: 0.313 µM (active)
[13]
  GI50: 1.07 µM (active)
[14]
  GI50: 3 µM (inactive)
[15]
  GI50: 2.82 µM (inactive)
[16]
  GI50: 7.35 µM (inactive)
[17]
  GI50: 8.41 µM (inactive)
[18]
  GI50: 2.21 µM (inactive)
[19]
  GI50: 4.97 µM (inactive)
[20]
  GI50: 2.21 µM (inactive)

## COC1=C(Cl)C(=O)c2c(O)ccc(O)c2C1=O
[1]
  GI50: 0.794 µM (active)
[2]
  GI50: 4.01 µM (inactive)
[3]
  GI50: 1.02 µM (active)
[4]
  GI50: 0.212 µM (active)
[5]
  GI50: 0.902 µM (active)
[6]
  GI50: 13 µM (inactive)
[7]
  GI50: 0.0393 µM (active)
[8]
  GI50: 1.78 µM (inactive)
[9]
  GI50: 3.15 µM (inactive)
[10]
  GI50: 1.11 µM (active)
[11]
  GI50: 6.17 µM (inactive)
[12]
  GI50: 1.04 µM (active)
[13]
  GI50: 0.0372 µM (active)
[14]
  GI50: 0.843 µM (active)
[15]
  GI50: 0.476 µM (active)
[16]
  GI50: 2.07 µM (inactive)
[17]
  GI50: 3.01 µM (inactive)
[18]
  GI50: 2.58 µM (inactive)
[19]
  GI50: 1.4 µM (inactive)
[20]
  GI50: 1.31 µM (inactive)

## O=C1/C(=C\c2ccc(-c3ccc(Cl)cc3Cl)o2)SC2NC(COc3ccc(Cl)cc3)=NN12 (stereo not given)
[1]
  GI50: 2.19 µM (inactive)
[2]
  GI50: 69.7 µM (inactive)
[3]
  GI50: 53.7 µM (inactive)
[4]
  GI50: 41.5 µM (inactive)
[5]
  GI50: 32.4 µM (inactive)
[6]
  GI50: 41.1 µM (inactive)
[7]
  GI50: 22.5 µM (inactive)
[8]
  GI50: 26.5 µM (inactive)
[9]
  GI50: 79.4 µM (inactive)
[10]
  GI50: 25.5 µM (inactive)
[11]
  GI50: 55.5 µM (inactive)
[12]
  GI50: 33.4 µM (inactive)
[13]
  GI50: 31.8 µM (inactive)
[14]
  GI50: 37.5 µM (inactive)
[15]
  GI50: 36 µM (inactive)
[16]
  GI50: 45.3 µM (inactive)
[17]
  GI50: > 100 µM (inactive)
[18]
  GI50: > 100 µM (inactive)
[19]
  GI50: 36.7 µM (inactive)
[20]
  GI50: 72.1 µM (inactive)

## COc1ccc(/C=C/C(=O)c2cc(OC)cc(OC)c2)cc1
[1]
  GI50: 3.67 µM (inactive)
[2]
  GI50: 2.13 µM (inactive)
[3]
  GI50: 4.7 µM (inactive)
[4]
  GI50: 4.56 µM (inactive)
[5]
  GI50: 6.52 µM (inactive)
[6]
  GI50: 4.44 µM (inactive)
[7]
  GI50: 0.151 µM (active)
[8]
  GI50: 20.8 µM (inactive)
[9]
  GI50: 1.91 µM (inactive)
[10]
  GI50: 5.75 µM (inactive)
[11]
  GI50: 0.265 µM (active)
[12]
  GI50: 0.219 µM (active)
[13]
  GI50: 4.63 µM (inactive)
[14]
  GI50: 2.69 µM (inactive)
[15]
  GI50: 4.02 µM (inactive)
[16]
  GI50: 3.45 µM (inactive)
[17]
  GI50: 5.6 µM (inactive)
[18]
  GI50: 5.97 µM (inactive)
[19]
  GI50: 10.3 µM (inactive)
[20]
  GI50: 3.56 µM (inactive)

## N#C/C(=C1\N=C(c2ccccc2O)Oc2ccccc21)c1ccc([N+](=O)[O-])cc1
[1]
  GI50: > 100 µM (inactive)
[2]
  GI50: > 100 µM (inactive)
[3]
  GI50: > 100 µM (inactive)
[4]
  GI50: > 100 µM (inactive)
[5]
  GI50: > 100 µM (inactive)
[6]
  GI50: > 100 µM (inactive)
[7]
  GI50: > 100 µM (inactive)
[8]
  GI50: > 100 µM (inactive)
[9]
  GI50: > 100 µM (inactive)
[10]
  GI50: 62.2 µM (inactive)
[11]
  GI50: > 100 µM (inactive)
[12]
  GI50: > 100 µM (inactive)
[13]
  GI50: > 100 µM (inactive)
[14]
  GI50: > 100 µM (inactive)
[15]
  GI50: > 100 µM (inactive)
[16]
  GI50: 41.9 µM (inactive)
[17]
  GI50: > 100 µM (inactive)
[18]
  GI50: > 100 µM (inactive)
[19]
  GI50: > 100 µM (inactive)
[20]
  GI50: > 100 µM (inactive)

## CCOc1ccc(/N=N/C2C(=O)N(C(=O)CC(=O)Nc3ccccc3)N=C2C)cc1 (stereo not given)
[1]
  GI50: 79.4 µM (inactive)
[2]
  GI50: 34.5 µM (inactive)
[3]
  GI50: > 100 µM (inactive)
[4]
  GI50: > 100 µM (inactive)
[5]
  GI50: 17.4 µM (inactive)
[6]
  GI50: 40.9 µM (inactive)
[7]
  GI50: 33.8 µM (inactive)
[8]
  GI50: 28.5 µM (inactive)
[9]
  GI50: 33.6 µM (inactive)
[10]
  GI50: 16 µM (inactive)
[11]
  GI50: 18.6 µM (inactive)
[12]
  GI50: 54.8 µM (inactive)
[13]
  GI50: 36.5 µM (inactive)
[14]
  GI50: 75.7 µM (inactive)
[15]
  GI50: 53.8 µM (inactive)
[16]
  GI50: > 100 µM (inactive)
[17]
  GI50: > 100 µM (inactive)
[18]
  GI50: 48.5 µM (inactive)
[19]
  GI50: 42.8 µM (inactive)
[20]
  GI50: 82 µM (inactive)

## COc1ccc(-c2cc(C3CC3)nc(SCC(=O)O)c2C#N)cc1
[1]
  GI50: > 100 µM (inactive)
[2]
  GI50: 44 µM (inactive)
[3]
  GI50: > 100 µM (inactive)
[4]
  GI50: > 100 µM (inactive)
[5]
  GI50: > 100 µM (inactive)
[6]
  GI50: > 100 µM (inactive)
[7]
  GI50: 54.5 µM (inactive)
[8]
  GI50: 82.6 µM (inactive)
[9]
  GI50: > 100 µM (inactive)
[10]
  GI50: 84.3 µM (inactive)
[11]
  GI50: > 100 µM (inactive)
[12]
  GI50: 94.4 µM (inactive)
[13]
  GI50: 60.3 µM (inactive)
[14]
  GI50: > 100 µM (inactive)
[15]
  GI50: 83.2 µM (inactive)
[16]
  GI50: 79.8 µM (inactive)
[17]
  GI50: > 100 µM (inactive)
[18]
  GI50: > 100 µM (inactive)
[19]
  GI50: > 100 µM (inactive)
[20]
  GI50: > 100 µM (inactive)

## CN1CCN(CCCCN2c3ccccc3Sc3ccc(C(=O)c4ccccc4)cc32)CC1
[1]
  GI50: 1.56 µM (inactive)
[2]
  GI50: 1.95 µM (inactive)
[3]
  GI50: 1.67 µM (inactive)
[4]
  GI50: 1.75 µM (inactive)
[5]
  GI50: 2.36 µM (inactive)
[6]
  GI50: 1.56 µM (inactive)
[7]
  GI50: 1.57 µM (inactive)
[8]
  GI50: 1.82 µM (inactive)
[9]
  GI50: 1.29 µM (inactive)
[10]
  GI50: 1.58 µM (inactive)
[11]
  GI50: 1.49 µM (inactive)
[12]
  GI50: 1.91 µM (inactive)
[13]
  GI50: 1.71 µM (inactive)
[14]
  GI50: 1.86 µM (inactive)
[15]
  GI50: 1.66 µM (inactive)
[16]
  GI50: 2.08 µM (inactive)
[17]
  GI50: 2.84 µM (inactive)
[18]
  GI50: 1.49 µM (inactive)
[19]
  GI50: 1.54 µM (inactive)
[20]
  GI50: 1.71 µM (inactive)

## COc1c(C)c(OC)c2c(c1O)[C@@H]1[C@@H]3Cc4c(OC)c(C)c(OC)c(O)c4[C@H](CNC(=O)c4cnc5ccccc5n4)N3[C@@H](C#N)[C@H](C2)N1C
[1]
  GI50: 0.00232 µM (active)
[2]
  GI50: 0.0292 µM (active)
[3]
  GI50: 0.00348 µM (active)
[4]
  GI50: 0.00119 µM (active)
[5]
  GI50: 0.00149 µM (active)
[6]
  GI50: 0.00327 µM (active)
[7]
  GI50: 0.00153 µM (active)
[8]
  GI50: 0.00136 µM (active)
[9]
  GI50: 0.00206 µM (active)
[10]
  GI50: 0.00134 µM (active)
[11]
  GI50: 0.00149 µM (active)
[12]
  GI50: 0.00135 µM (active)
[13]
  GI50: 0.000689 µM (active)
[14]
  GI50: > 0.0643 µM (active)
[15]
  GI50: 0.00214 µM (active)
[16]
  GI50: 0.002 µM (active)
[17]
  GI50: 0.00337 µM (active)
[18]
  GI50: 0.0029 µM (active)
[19]
  GI50: 0.00254 µM (active)
[20]
  GI50: 0.00329 µM (active)
